Columns and labels:
Type in all cases: in vivo
[1] = system: Meloidogyne incognita; experiment: Root infestation on agar plate: root knot count on potato microplant roots; details: 60 μM in agar, galls counted 5 weeks after inoculation, four replicates
Method: 9 cm petri dishes were filled with a 15 ml agar. One stem cutting of a potato microplant (Solanum tuberosum cv. Desirée) was placed on top of the agar layer. After 2 to 3 weeks of incubation at 20° C., the root system was sufficiently developed to be inoculated.
The test compounds (see Table 1) were added 2 days before inoculation by way of spreading a 2 ml DMSO-solution with the compound over the agar and allowing the compound to diffuse in the agar during two days at constant temperature of 20° C. During incubation, the plates are protected from light in a dark incubator. The resulting concentration of each compound in each agar plate was 60 μM.
After incubation, approximately 400 axenic juveniles of Meloidogyne incognita species were added to the plate.
The plates were incubated in the dark at a constant temperature of 20° C. and 5 weeks after inoculation the number of galls formed on the roots were determined by counting. Also any toxic effect of the test compounds on the roots was recorded. 8 weeks after inoculation the plates were stored at low temperature.
Each compound was tested in four replicates. Positive controls were treated with different concentrations of Aldicarb, a known nematicide. Negative controls included 5 replicates of double negative controls (no compound, no nematode), 5 replicates of single negative controls (no compound, with nematode) and 5 replicates of DMSO controls (DMSO solution, with nematode).

[2] = system: Meloidogyne incognita nematodes; experiment: Pot Assay 1: Meloidogyne infection of potato, egg masses/galls on roots; details: potato in pot, week 8 after inoculation
Method: 500 ml clay pots were filled with 400 ml of silver sand. One tuber of potato ( Solanum tuberosum cv. Bintje) was planted in the sand. After 2 to 3 weeks incubation, the potato plant was sufficiently developed to be inoculated.
Plants were grown under the usual standard greenhouse conditions at 14° C.-18° C., with 16 hours light and 8 hours dark and 80-90% relative humidity. The pots were watered using individual drippers and fertilizers were added under the form of macro- and micro nutrients according to plant growth requirements. When needed, the plants were sprayed with fungicides and insecticides.
The compounds as described herein were added one day before inoculation. The compounds were dissolved in a 20 ml DMSO-solution and spread over the sand surface. The final concentration is calculated under the assumption that the compound is diffused entirely in the pot. This process occurred during two days at the normal greenhouse conditions described above.
After compound incubation, approximately 1500 juveniles of Meloidogyne incognita nematodes were added to the pots.
The pots were incubated at the described greenhouse conditions until nematode development was completed. At week 8 after inoculation the number of galls formed on the roots was counted after washing off the sandy substrate. Also the effect of the compound on the plant development was recorded.
Every compound was tested in three replicates. Positive control plants were treated with different concentrations of aldicarb, a known nematicide. Negative controls involved 12 replicates of double negative controls (no compound, no nematode), 12 replicates of single negative controls (no compound, no DMSO, with nematode), 24 replicates of DMSO controls (DMSO solution, with nematode).
As assessment of the root development was taken into account.

[3] = system: root-knot nematode (Meloidogyne spp); experiment: Nematicide field trial on cucumber: root galling and yield; details: for Average root galling: 0-5 Lamberti scale
Method: Open ground grown cucumber (Cucumis sativus cv Carine) were grown on sandy soil with a natural root-knot nematode (Meloidogyne spp) population. Soil samples, collected prior to planting, contained on average 8 J2 juveniles per 100 g soil. A program of 4 applications with intervals of about 14 days was started six days after transplantation.
(§1) An experimental pattern at Complete Randomized Blocks with four replicas was adopted. Besides the experimental products, each test also included an untreated control and a treatment with the standard commercial product VYDATE 10L (10%) applied in accordance to label instructions.
[…] The level of nematode attack of the root system at the time of harvesting was assessed by means of the lamberti scoring.

[4] = system: stubby root nematodes (Paratrichodorus), stunt nematodes (Tylenchorhynchus spp.), root lesion nematodes (Pratylenchus spp.) and root knot nematodes …; experiment: Nematicide field trial on carrots: % deformed carrots
Method: Garden carrots were grown in the open field. The soil contained high levels of stubby root nematodes (Paratrichodorus), stunt nematodes (Tylenchorhynchus spp.), root lesion nematodes (Pratylenchus spp.) and root knot nematodes (Meloidogyne spp.).
as §1
In carrots, nematodes cause deformation such as stunting, dwarfing, twisting, splitting and bearding. For these experiments, the total percentage of deformed carrots were considered, as these are not marketed for human consumption and are of no commercial interest.
Three different tests have been performed (Tables 9, 10 and 11), each containing an untreated and commercial reference control. All treatments were statistically different from untreated control.

Compound: Cc1cc(C2CC2)nc(Nc2ccccc2)n1 [XLIV]
- Root knot count, average of the replicate counts [1]: 9.5
- number of egg masses (galls) on roots, Replicate 3 ([2]; 0.5 μM): 5
- number of egg masses (galls) on roots, Replicate 1 ([2]; 2 μM): 20
- number of egg masses (galls) on roots, Replicate 3 ([2]; 2 μM): 15
- number of egg masses (galls) on roots, Replicate 1 ([2]; 10 μM): 20
- number of egg masses (galls) on roots, Replicate 1 ([2]; 50 μM): 15
- number of egg masses (galls) on roots, Replicate 2 ([2]; 50 μM): 25
- number of egg masses (galls) on roots, Replicate 3 ([2]; 50 μM): 5
- Average yield of marketable fruits ([3]; Product Rate 500 g ai/ha): 7.3 kg/plant/pot
- Average root galling ([3]; Product Rate 500 g ai/ha): 2.5
- Average yield of marketable fruits ([3]; Product Rate 1500 g ai/ha): 8.3 kg/plant/pot
- Average root galling ([3]; Product Rate 1500 g ai/ha): 2.5
- % total deformed ([4]; test of Table 9, Product Rate 500 g ai/ha): 37.41%
- % total deformed ([4]; test of Table 9, Product Rate 1500 g ai/ha): 44.85%
- % total deformed ([4]; test of Table 9, Product Rate 3000 g ai/ha): 37.10%
